This note sets out measurements from ChEMBL document CHEMBL1201862, “PubChem BioAssay data set” (2004).

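Step 1: Grow cells in 96-well plates. Step 2: Expose to compound for 48 hours at 5 concentrations. Step 3: Interpolate endpoints linearly; if unreached, use highest concentration. At the GI50, growth is halved.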 The source made the active and inactive calls. No stated cut-off is given here; in the data, active = GI50 up to about 1.1 µM and inactive = higher.

What all share (experiment): NCI tumour cell line growth inhibition, 48 h
In assay [1] the test system is COLO 205.
Assay [2] relates to TK-10.
In assay [3] the test system is IGROV-1.
The test system of assay [4] is MOLT-4.
Assay [5] concerns SW-620.
The subject of assay [6] is UACC-62.
Assay [7] deals with M14.
For assay [8], the system named is SK-MEL-28.
For assay [9], the system named is OVCAR-8.
Assay [10] concerns HOP-62.
For assay [11], the system named is OVCAR-3.
Assay [12] has as its system SNB-75.
The subject of assay [13] is SR.
In assay [14] the test system is MDA-MB-231.
Assay [15] has as its system NCI-H460.
The subject of assay [16] is HCC 2998.
In assay [17] the test system is HT-29.
The subject of assay [18] is OVCAR-4.
Assay [19] concerns CCRF-CEM.
Assay [20] deals with OVCAR-5.

Regarding `O=C(NCCCCCCCN1CCCCCCC1)C(C1CCCCC1)C1CCCCC1`, the GI50 in assay [1] is 2.81 µM (inactive); in [2] it was 12.9 µM (inactive); in assay [3], 12.3 µM (inactive); in assay [4], 1.19 µM (inactive); in assay [5] it was 12.1 µM (inactive); in assay [6], 4.76 µM (inactive). In addition, the GI50 is 2.01 µM (inactive) in assay [7]; 6.08 µM (inactive) in assay [8]; 12.3 µM (inactive) in assay [9]; 3.97 µM (inactive) in assay [10]; 6.07 µM (inactive) in assay [11]; 9.79 µM (inactive) in assay [12]. Also, the GI50 in assay [13] is 2.34 µM (inactive); in [14], 8.51 µM (inactive); in [15] it was 9.1 µM (inactive); in assay [16], 2.76 µM (inactive); in assay [17], 2.82 µM (inactive); in assay [18], 9.38 µM (inactive). In addition, the GI50 is 6.97 µM (inactive) in [19] and 11 µM (inactive) in assay [20].
Regarding `O=C(O)CCC(NC(=O)c1ccc(Oc2nc3ccccc3nc2-c2ccccc2)cc1)C(=O)O` (stereo not drawn), the GI50 in assay [1], in assay [2], in assay [3], in assay [4], in [5] and in assay [6] was > 100 µM (inactive) in each case. Also, the GI50 in [7], in assay [8], in assay [9], in assay [10], in assay [11] and in assay [12] was > 100 µM (inactive) in each case. In addition, the GI50 in assay [13], in assay [14], in assay [15], in [16], in assay [17] and in assay [18] was > 100 µM (inactive) throughout. For the same compound, the GI50 in assay [19] and in assay [20] was > 100 µM (inactive) each time.
As for `O=C(CNc1c(Cl)cccc1Cl)NC1C=Cc2ccc(S(=O)(=O)Nc3c(Cl)cccc3Cl)cc2C1=O` (stereo not drawn), the GI50 in assay [1] is > 100 µM (inactive); in [2] it was > 100 µM (inactive); in [3], 2.4 µM (inactive); in [4] it was > 100 µM (inactive); in [5] it was > 100 µM (inactive); in assay [6] it was 79.6 µM (inactive). The GI50 in assay [7] was > 100 µM (inactive); in assay [8] it was > 100 µM (inactive); in assay [9] it was > 100 µM (inactive); in assay [10], 41.4 µM (inactive); in [11], 42.5 µM (inactive); in assay [12], 16.7 µM (inactive). For the same compound, the GI50 in assay [13] is > 100 µM (inactive); in assay [14] it was 51.3 µM (inactive); in assay [15] it was > 100 µM (inactive); in assay [16], 67.5 µM (inactive); in assay [17], 50.2 µM (inactive); in assay [18], > 100 µM (inactive). Moreover, the GI50 in [19] was 53.2 µM (inactive); in assay [20], 47.1 µM (inactive).
Consider `COc1cc(/C=C/c2cc(/C=C/c3ccc(O)c(OC)c3)oc(=O)c2)ccc1O`, for which the GI50 in assay [1] is 13.1 µM (inactive); in assay [2] it was 3.78 µM (inactive); in [3] it was 4.67 µM (inactive); in assay [4], 3.48 µM (inactive); in assay [5] it was 3.13 µM (inactive); in [6], 4.69 µM (inactive). Further, the GI50 in assay [7] is 5.09 µM (inactive); in assay [8] it was 6.32 µM (inactive); in assay [9], 4.12 µM (inactive); in [10] it was 4.92 µM (inactive); in [11], 2.36 µM (inactive); in assay [12], 0.393 µM (active). For the same compound, the GI50 was 3.07 µM (inactive) in assay [13]; 13.9 µM (inactive) in assay [14]; 2.29 µM (inactive) in assay [15]; 1.81 µM (inactive) in assay [16]; 2.84 µM (inactive) in assay [17]; 3.84 µM (inactive) in assay [18]. In addition, the GI50 in [19] is 3.64 µM (inactive); in assay [20] it was 32.8 µM (inactive).
Regarding `Nc1ccc(Oc2ccc(C34CC5CC(C3)CC(c3ccc(Oc6ccc(N)cc6)cc3)(C5)C4)cc2)cc1`, the GI50 in assay [1] is 14.5 µM (inactive); in assay [2] it was 10.3 µM (inactive); in assay [3], 5.38 µM (inactive); in [5], > 25.5 µM (inactive); in assay [6] it was 10.4 µM (inactive); in assay [7], 10.4 µM (inactive). The GI50 is 18.9 µM (inactive) in assay [8]; 5.26 µM (inactive) in assay [9]; 17.5 µM (inactive) in [10]; 7.66 µM (inactive) in assay [11]; 24 µM (inactive) in assay [12]; 3.56 µM (inactive) in [13]. The GI50 in assay [14] was 11.1 µM (inactive); in assay [15] it was 10.7 µM (inactive); in [16], 4.9 µM (inactive); in [17] it was 8.11 µM (inactive); in assay [18], 8.79 µM (inactive); in [19], > 22 µM (inactive). Moreover, in [20], the GI50 is 18.6 µM (inactive).
`O=C1C[C@H](CCC(=O)OCc2ccccc2)NC(=O)C[C@H](CCC(=O)OCc2ccccc2)NC(=O)C[C@H](CCC(=O)OCc2ccccc2)N1`: the GI50 in [1] was > 100 µM (inactive); in [2], 6.24 µM (inactive); in [3], 50.2 µM (inactive); in assay [4], > 100 µM (inactive); in assay [5] it was > 100 µM (inactive); in assay [6], 88.9 µM (inactive). In addition, the GI50 in [7] was > 100 µM (inactive); in assay [8], > 100 µM (inactive); in assay [9], > 100 µM (inactive); in assay [10], 16.2 µM (inactive); in assay [11] it was 97.1 µM (inactive); in assay [12], 2.22 µM (inactive). Moreover, the GI50 in [13] was > 100 µM (inactive); in assay [14], 14.2 µM (inactive); in assay [15] it was > 100 µM (inactive); in assay [16], > 100 µM (inactive); in assay [17], > 100 µM (inactive); in assay [18], > 100 µM (inactive). Moreover, the GI50 in [19] and in assay [20] was > 100 µM (inactive) each time.
For `O=C(O)CCC1C(=O)C2CCN1CC2` (stereo not drawn), the GI50 in assay [1], in assay [2], in [3], in [4], in assay [5] and in assay [6] was > 100 µM (inactive) throughout. Also, the GI50 in assay [7], in assay [8], in assay [9], in [10], in assay [11] and in assay [12] was > 100 µM (inactive) each time. Also, the GI50 in assay [13], in assay [14], in assay [15], in [16], in assay [17] and in [18] was > 100 µM (inactive) in each case. In addition, the GI50 in assay [19] and in assay [20] was > 100 µM (inactive) each time.
For `COC(=O)/C=C(/C=C1/C(C#N)=C(N)N(c2ccc(Cl)cc2)C1(C)/C(=C\C(=O)OC)C(=O)OC)C(=O)OC` (stereo not drawn), the GI50 was 15 µM (inactive) in [1]; 29.4 µM (inactive) in [2]; 21.5 µM (inactive) in [3]; 23.3 µM (inactive) in [4]; 15.9 µM (inactive) in [5]; 12.9 µM (inactive) in assay [6]. In addition, the GI50 is 19.5 µM (inactive) in [7]; 18.9 µM (inactive) in [8]; 17.3 µM (inactive) in assay [9]; 35.9 µM (inactive) in assay [10]; 18.4 µM (inactive) in assay [11]; 25.6 µM (inactive) in assay [12]. Also, the GI50 is 28.5 µM (inactive) in assay [13]; 29.2 µM (inactive) in assay [14]; 19.5 µM (inactive) in assay [15]; 20 µM (inactive) in assay [16]; 17 µM (inactive) in assay [17]; 18.9 µM (inactive) in assay [18]. Also, the GI50 in assay [19] is 16.3 µM (inactive); in [20], 21.3 µM (inactive).
Take `COc1ccc(C(=O)c2sc(N(C)C)nc2-c2ccccc2)cc1`: the GI50 in assay [1] is 33.7 µM (inactive); in assay [2], 37.9 µM (inactive); in assay [3], 42.6 µM (inactive); in assay [4], 81.3 µM (inactive); in assay [5], 30.9 µM (inactive); in assay [6], 30.8 µM (inactive). The GI50 in assay [7] is 35.3 µM (inactive); in [8], 32.1 µM (inactive); in assay [10], 20.6 µM (inactive); in assay [11], 16.8 µM (inactive); in [12], 35.2 µM (inactive); in assay [13], 17.1 µM (inactive). For the same compound, the GI50 in assay [14] was 33.7 µM (inactive); in assay [15], 20.2 µM (inactive); in assay [16] it was 18.2 µM (inactive); in [17], 32.9 µM (inactive); in [18] it was 23.4 µM (inactive); in [19], 5.07 µM (inactive). Moreover, the GI50 in assay [20] is 36.7 µM (inactive).
Regarding `COc1ccc(-c2cc(=O)c3c(OC)c(OC)c(OC)c(OC)c3o2)c(OC)c1`, the GI50 in assay [1] is 17.1 µM (inactive); in [2], 37.2 µM (inactive); in [3], 36.9 µM (inactive); in [4], 26.4 µM (inactive); in [5] it was 31.1 µM (inactive); in assay [6] it was 16 µM (inactive). Also, the GI50 in assay [7] is 21 µM (inactive); in assay [8], 42.9 µM (inactive); in [9], 21.9 µM (inactive); in assay [10], 26.7 µM (inactive); in assay [11] it was 13.4 µM (inactive); in assay [12] it was 15.6 µM (inactive). The GI50 is > 100 µM (inactive) in [13]; 25.1 µM (inactive) in assay [14]; 32.1 µM (inactive) in assay [15]; 18.8 µM (inactive) in assay [16]; 24.2 µM (inactive) in [17]; 28.3 µM (inactive) in [18]. Further, the GI50 in assay [19] is 33.8 µM (inactive); in assay [20], 70.8 µM (inactive).
